Consider 4 compounds from ChEMBL document CHEMBL1201862, “PubChem BioAssay data set” (2004).

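Protocol summary: plate cells (96-well), add compound at 5 concentrations, incubate 48 h, interpolate endpoints linearly. GI50 = concentration required for 50% inhibition of growth.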 Activity calls are given as the source filed them. Rule as the data show it: active = GI50 up to about 1.1 µM and inactive = higher. Where only a bound is given, the exact number is not on record here.

Test systems include A549; CCRF-CEM; COLO 205; HCT-116; HT-29; IGROV-1; K562; KM12; MOLT-4; NCI/ADR-RES; OVCAR-4; SF-539; UACC-257; UACC-62; ACHN; DU-145; M14; PC-3; SR.
Experiment in all cases: NCI tumour cell line growth inhibition, 48 h

`COc1ccc(C2COc3c(ccc(O)c3C)C2)cc1OC` (stereo not drawn): the GI50 is 60.8 µM (inactive) in the test with A549; 40.7 µM (inactive) in the test with CCRF-CEM; 61.7 µM (inactive) with COLO 205; 48.3 µM (inactive) with HCT-116; 65.8 µM (inactive) in the test on HT-29; 130 µM (inactive) in the test on IGROV-1. Besides, the GI50 was 59.6 µM (inactive) in the test with K562; 102 µM (inactive) in the test on KM12; 29.2 µM (inactive) in the test with MOLT-4; 110 µM (inactive) in the test on NCI/ADR-RES; 89.3 µM (inactive) in the test on OVCAR-4; 106 µM (inactive) in the test with SF-539. Also, the GI50 was 149 µM (inactive) in the test with UACC-257 and 96.2 µM (inactive) with UACC-62.

Take `CCCCC[C@H]1CCCCCCCCCC(=O)OC2C(O[C@@H]3OC(C)[C@H](OC(=O)[C@@H](C)CC)C(O[C@@H]4OC(C)[C@H](O)C(O)[C@@H]4O)[C@@H]3OC(=O)[C@H](C)CC)[C@H](OC3C(O)[C@@H](O)C(C)O[C@H]3O1)OC(CO)[C@H]2O` (stereo partly drawn): the GI50 in the test with A549 is 16.8 µM (inactive); in the test on ACHN it was > 10 µM (inactive); in the test with CCRF-CEM, 18.6 µM (inactive); in the test on COLO 205, 11.9 µM (inactive); in the test on DU-145 it was 16.2 µM (inactive); with HCT-116 it was 16.1 µM (inactive). In addition, the GI50 in the test on HT-29 was 16.7 µM (inactive); with IGROV-1, 17.1 µM (inactive); with K562, 18.8 µM (inactive); in the test with KM12, 20 µM (inactive); with M14 it was 18.2 µM (inactive); in the test on MOLT-4 it was 15.6 µM (inactive). In addition, the GI50 in the test on NCI/ADR-RES is 18.8 µM (inactive); with OVCAR-4, 19.2 µM (inactive); in the test on PC-3 it was 16.2 µM (inactive); with SR, 16.7 µM (inactive); in the test on UACC-257, 15.8 µM (inactive); in the test on UACC-62, 16.9 µM (inactive).

Consider `N#C/C(=C\c1cc(F)cc(F)c1)c1ccccn1`, for which the GI50 in the test with A549 was 28.6 µM (inactive); in the test on ACHN, 30.6 µM (inactive); in the test on CCRF-CEM it was 18.1 µM (inactive); in the test with COLO 205, > 10 µM (inactive); in the test on DU-145, 36.9 µM (inactive); in the test with HCT-116, 27.9 µM (inactive). For the same compound, the GI50 is 34.4 µM (inactive) in the test on HT-29; 54.8 µM (inactive) with IGROV-1; 15.5 µM (inactive) with K562; 22.1 µM (inactive) in the test on KM12; 25.8 µM (inactive) in the test on M14; 13.7 µM (inactive) with MOLT-4. The GI50 in the test on NCI/ADR-RES was 23.6 µM (inactive); in the test with OVCAR-4, 45.8 µM (inactive); with PC-3, 24.3 µM (inactive); in the test with SF-539, 19.5 µM (inactive); in the test with SR, 24 µM (inactive); in the test on UACC-257, 32.1 µM (inactive). The GI50 in the test with UACC-62 is 45.1 µM (inactive).

For the compound `Nc1ccccc1NC(=O)c1ccc(CNC(=O)OCc2cccnc2)cc1` [ENTINOSTAT], the GI50 with A549 is 3 µM (inactive); with ACHN, 1.88 µM (inactive); in the test on CCRF-CEM, 0.757 µM (active); with COLO 205 it was 1.17 µM (inactive); in the test on DU-145, 0.805 µM (active); in the test with HCT-116, 0.415 µM (active). The GI50 was 0.524 µM (active) in the test on HT-29; 2.78 µM (inactive) in the test with IGROV-1; 0.627 µM (active) in the test on K562; > 23.4 µM (inactive) in the test with KM12; 1.04 µM (active) in the test with M14; 0.557 µM (active) with MOLT-4. Moreover, the GI50 in the test on NCI/ADR-RES is 1.24 µM (inactive); in the test on PC-3, 2.88 µM (inactive); in the test on SF-539, 3.76 µM (inactive); in the test with UACC-257, 1.59 µM (inactive); with UACC-62, 0.622 µM (active).
